{"source": "paper PMC10764104", "about": "“Discovery of Molecular Glue Degraders via Isogenic Morphological Profiling” (ACS Chemical Biology, 2023)", "key": {"recombinant DDB1-CRBN": {"biological_target": "T1, recombinant DDB1-CRBN (Homo sapiens, UniProt Q96SW2)", "T1 construct": "His; made in house; host or cells: High Five insect cells (baculovirus made and propagated in SF9 cells)", "test": "Fluorescence polarization-based competition assay for CRBN binding", "conditions": "200 nM CRBN-DDB1, 20 nM pomalidomide-fluorescein tracer 16, triplicates; read-out: FP_CRBN_binding: CRBN binding affinity, EC50"}, "GSPT2 G566N": {"biological_target": "T2, GSPT2 G566N (Homo sapiens, UniProt Q8IYD1, G566N)", "T2 construct": "expressed in transfected cells; host or cells: RKO cells, lentiviral transduction, puromycin-selected", "test": "Western blot (HA-tag) of G-loop mutant GSPT2 in RKO cells", "assay_type": "cell-based", "conditions": "RKO cells stably overexpressing HA-GSPT2 G566N, 16 h; 10 μM FL2-14 or 10 nM CC-885", "method": "Figure 3 FL2-14 is a selective GSPT2 molecular glue degrader. (A) Structure of FL2-14 comprising fluorosulfate scaffold FL2 (black) and tail group modification 14 (blue). (B) DMSO-normalized quantitative proteomics after 16 h of treatment with FL2-14 (10 μM) in RKO WT (n = 2). […] (C) Structural alignment of AlphaFold models of GSPT1 (AF-P15170-F1-model_v4 in gray) and GSPT2 (AF-Q8IYD1-F1-model_v4 in blue). (D) Validation of GSPT2 degradation by FL2-14. […] (E) Dose–response of FL2-14 in RKO and HEK293T cells. Cells were treated with the FL2-14 (0 to 10 μM) for 16 h. (F) Degradation of GSPT2^WT or GSPT2^G566N.\nPrediction of the G‐loop degron sequence in GSPT2\nWe first compiled all CRBN degron sequences with known crystal structures (Table S 2). We subsequently discarded 6UML as its degron sequence included an alanine instead of the typical glycine observed in the seventh amino acid residue of other degron sequences, leaving six degron sequences. We then scanned the latest AlphaFold structure of GSPT215 for a potential stretch of 10 amino acids that would align best with each degron sequence. We yielded the same stretch of amino acid residues from position 560 to 569 ([…]) and RMSD values under 0.5 Å.\nTable S 2: List of crystal structures used for the computational prediction of the G‐loop degron sequence […]\nPDB code Resolution (Å) Chain Segment Sequence Reference\nAnalysis of G‐loop mutation […]"}}}
{"compound": "CN(Cc1ncc(C2CC2)o1)S(=O)(=O)Oc1ccc(Nc2ccc3c(c2)C(=O)N(C2CCC(=O)NC2=O)C3=O)cc1", "note": "(centres unmarked) [FL2-14]", "values": [{"measurement": "EC50", "setting": "recombinant DDB1-CRBN", "value": 991, "unit": "nM"}, {"measurement": "degradation of HA-tagged GSPT2 G566N (glycine of G-loop replaced by asparagine)", "setting": "GSPT2 G566N", "value": "rescued degradation of GSPT2"}]}
